Experimental data reported in patent US20260256796A1, “METHOD FOR TREATING FELINE CORONAVIRUS OR CALICIVIRUS INFECTION” (VIGONVITA LIFE SCIENCES CO., LTD., priority 2022, published 2026).

Columns and labels:
[1] = system: feline infectious peritonitis virus (FIPV); assay: Inhibitory activity against feline coronavirus (FIPV) in CRFK cells, CellTiter-Glo readout; type: cell-based; details: for EC50: Alphacoronavirus 1, FIPV 0.1 MOI/well, 72 h, CellTiter-Glo; for inhibition of replication of FIPV in vitro: summary of Table 1
Method: CRFK cells in a good growth state were seeded into a 96-well assay plate. When the cells grew to 80%-90% confluence, feline coronavirus (FIPV) (0.1 MOI/well) and varying concentrations of the test compounds were added to the assay plate. Meanwhile, a cell control (cells, no compound treatment or viral infection) and a virus control (cells infected with virus, no compound treatment) were set. The final concentration of DMSO in the culture solution was 1%. After incubation at 37° C. for 72 h, the cells were treated with a CellTiter-Glo luminescent cell viability assay reagent (Promega, Madison, WI, USA). The half-maximal effective concentration (EC50) values of the compounds for virus inhibition were calculated using the GraphPad prism 7 software.

[2] = Pharmacokinetic evaluation in rats; type: in vivo; details: male, SD; for AUC(0-inf) / AUC(0-t) / Cmax: nucleoside (compound 4) in rat plasma
Method: Male SD rats were fasted before the experiment (except for the intravenous group, which was not fasted), with free access to water, and were fed uniformly 2 h after administration. Compound 4 was administered by intravenous injection at a dose of 2.0 mg/kg (n=3) and administered intragastrically at a dose of 10.0 mg/kg (n=3); compound 53 was administered by intravenous injection at a dose of 5.0 mg/kg (n=3) and administered intragastrically at a dose of 20.0 mg/kg (n=3); the administration vehicle was 5% DMSO+5% ethanol+40% PEG300+50% saline. After the administration, 0.2-mL blood samples were collected via the jugular vein at different time points. Each blood sample was then placed into a heparin sodium anticoagulation tube, gently mixed uniformly, and centrifuged at 2000 g for 10 min. Plasma was isolated and frozen in a refrigerator at −70° C. for later analysis. The concentration of nucleoside (compound 4) in the plasma was determined by the LC-MS-MS method, and pharmacokinetic parameters were calculated.

[2H]c1cc([C@]2(C#N)O[C@H](CO)[C@@H](O)[C@H]2O)n2ncnc(N)c12 [Compound 4] showed an EC50 [1] of 2340 nM, a bioavailability ([2]; plasma, rat, nucleoside (compound 4) measured, po 10.0 mg/kg vs iv 2.0 mg/kg, read-out: F (oral bioavailability)) of 21.7% and an AUC(0-inf) ([2]; iv 2.0 mg/kg) of 1790 ng·h/mL. For the same compound, the AUC(0-t) ([2]; iv 2.0 mg/kg) was 1720 ng·h/mL, the Cmax ([2]; iv 2.0 mg/kg) was 1630 ng/mL and the AUC(0-inf) ([2]; po 10.0 mg/kg) was 1910 ng·h/mL. It also gave an AUC(0-t) ([2]; po 10.0 mg/kg) of 1870 ng·h/mL and a Cmax ([2]; po 10.0 mg/kg) of 246 ng/mL.
For CC(C)C(=O)OC[C@H]1O[C@@](C#N)(c2ccc3c(N)ncnn23)[C@H](O)[C@@H]1O [Compound 6], the EC50 [1] was 650 nM and the “inhibition of replication of FIPV in vitro” value (“inhibition” below) [1] was “could inhibit the replication”.
With [2H]c1cc([C@]2(C#N)O[C@H](COC(=O)C(C)C)[C@@H](O)[C@H]2O)n2ncnc(N)c12 [Compound 11] the EC50 [1] was 690 nM and the “inhibition” value [1] was “could inhibit the replication”.
With CC(C)C(=O)O[C@H]1[C@@H](O)[C@](C#N)(c2ccc3c(N)ncnn23)O[C@@H]1CO [Compound 20] the EC50 [1] was 690 nM and the “inhibition” value [1] was “could inhibit the replication”.
In the case of N#C[C@@]1(c2ccc3c(N)ncnn23)O[C@H](CO)[C@H]2OC(=O)O[C@H]21 [Compound 25], the EC50 [1] is reported as 2750 nM.
Work on CC(C)C(=O)OC[C@H]1O[C@@](C#N)(c2ccc3c(N)ncnn23)[C@H](OC(=O)C(C)C)[C@@H]1OC(=O)C(C)C [Compound 27] yielded an EC50 [1] of 1590 nM.
[2H]c1cc([C@]2(C#N)O[C@H](COC(=O)CC)[C@@H](O)[C@H]2O)n2ncnc(N)c12 [Compound 29] showed an EC50 [1] of 1100 nM.
Work on [2H]c1cc([C@]2(C#N)O[C@H](COC(=O)C(CC)CC)[C@@H](O)[C@H]2O)n2ncnc(N)c12 [Compound 32] yielded an EC50 [1] of 43800 nM.
In the case of [2H]c1cc([C@]2(C#N)O[C@H](COC(C)=O)[C@@H](OC(C)=O)[C@H]2OC(C)=O)n2ncnc(N)c12 [Compound 40], the EC50 [1] is reported as 1050 nM.
Compound [2H]c1cc([C@]2(C#N)O[C@H](COC(=O)C(C)C)[C@@H](OC(=O)C(C)C)[C@H]2OC(=O)C(C)C)n2ncnc(N)c12 [Compound 42] has an EC50 [1] of 1630 nM.
Compound [2H]c1cc([C@]2(C#N)O[C@H](COC(C)=O)[C@@H](O)[C@H]2O)n2ncnc(N)c12 [Compound 52] has an EC50 [1] of 1300 nM.
In the case of [2H]c1cc([C@]2(C#N)O[C@H](COC(=O)C(C)C)[C@H]3OC(=O)O[C@H]32)n2ncnc(N)c12 [Compound 53], the EC50 [1] is reported as 660 nM and the “inhibition” value [1] is reported as “could inhibit the replication”.
Compound N#C[C@@]1(c2ccc3c(N)ncnn23)O[C@H](CO)[C@@H](O)[C@H]1O [GS-441524, reference compound] has an EC50 [1] of 2290 nM.
